Earlier results, collected in patent publication US20220395469A1, “TRANSDERMAL DRUG DELIVERY SYSTEM FOR KETAMINE” (GUANGZHOU DAZHOU BIOMEDICINE LTD., priority 2017, published 2022).

Columns and labels:
[1] = test system: NMDA receptor; conditions: in vitro
[2] = not given; remark: listed apart in the source
[3] = three-compartment model, 70-kg human (Fanta et al.)

CN[C@@]1(c2ccccc2Cl)CCCCC1=O [R-ketamine]
psychotomimetic side effects and abuse liability (Yang et al.): free of psychotomimetic side effects and abuse liability
antidepressant effectiveness (animal model studies, versus S-ketamine (Yang et al.)): more effective as an antidepressant than S-ketamine

CN[C@]1(c2ccccc2Cl)CCCCC1=O [S-ketamine]
affinity on NMDA receptor binding relative to R-ketamine [1]: ~4 fold

CNC1(c2ccccc2Cl)CCCCC1=O (centres unmarked) [ketamine]
absolute oral bioavailability ([2]; in humans): 10-20%
systemic (primarily hepatic) clearance ([2]; in vivo): about 19 ml/min·kg
V1 [2, 3]: 133 L
clearance [2, 3]: 79.8 L/h
micro constant k12 [2, 3]: 0.174 h⁻¹
micro constant k13 [2, 3]: 1.18 h⁻¹
micro constant k21 [2, 3]: 0.124 h⁻¹
micro constant k31 [2, 3]: 1.59 h⁻¹
